Drawing on ChEMBL document CHEMBL1201862, “PubChem BioAssay data set” (2004), this text covers IC50, EC50 and AC50 for 6 compounds.

Active and inactive are the calls of the source.

Experiment [1] in a line: cells.
Experiment [2] can be described thus: cells. This is another data set of the same source.
The nature of experiment [3]: Trypanosoma cruzi growth suppression in host cells – NIH3T3 host cells, beta-gal luminescence, confirmation (AID 2044).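 Further: intracellular parasites grown in NIH/3T3 mouse fibroblasts as host cells; luminescent beta-galactosidase reporter signal from transgenic T. cruzi replicating inside host cells; inhibitors lower the luminescence signal.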 It is filed as functional, cell-based.
Experiment [4] can be described thus: NIH3T3 cell viability loss – ATP luminescence, mouse fibroblasts, counter-screen, dose response (AID 2010).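 Further: cells exposed to compound for about 90 hours before reading.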 It counts as functional, cell-based. On the technique in general: A counterscreen serves to expose hits that act by an unwanted route or on another target.
Experiment [5] addresses T1, Neuropeptide Y receptor type 1 (Homo sapiens, UniProt P25929).
T1 sequence (P25929 whole entry): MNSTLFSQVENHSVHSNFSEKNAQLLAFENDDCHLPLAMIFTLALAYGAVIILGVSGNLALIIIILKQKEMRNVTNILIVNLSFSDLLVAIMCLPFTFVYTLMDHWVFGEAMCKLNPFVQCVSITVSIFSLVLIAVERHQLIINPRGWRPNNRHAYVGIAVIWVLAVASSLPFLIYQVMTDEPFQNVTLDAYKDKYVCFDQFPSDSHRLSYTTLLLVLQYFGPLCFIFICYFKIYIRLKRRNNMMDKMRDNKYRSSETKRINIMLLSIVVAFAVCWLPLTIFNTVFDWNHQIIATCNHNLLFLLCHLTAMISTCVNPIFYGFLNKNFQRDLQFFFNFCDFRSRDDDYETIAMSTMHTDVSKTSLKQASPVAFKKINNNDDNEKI
It counts as functional.

For experiment [6], the target named is T2, Neuropeptide Y receptor type 2 (Homo sapiens, UniProt P49146).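 Further: HEK293 cells expressing the receptor and a CNG channel; stimulus was NPY near EC95 followed by isoproterenol to raise cAMP; antagonist potency measured as restoring cAMP signal that NPY suppresses.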
T2 sequence (P49146 whole entry): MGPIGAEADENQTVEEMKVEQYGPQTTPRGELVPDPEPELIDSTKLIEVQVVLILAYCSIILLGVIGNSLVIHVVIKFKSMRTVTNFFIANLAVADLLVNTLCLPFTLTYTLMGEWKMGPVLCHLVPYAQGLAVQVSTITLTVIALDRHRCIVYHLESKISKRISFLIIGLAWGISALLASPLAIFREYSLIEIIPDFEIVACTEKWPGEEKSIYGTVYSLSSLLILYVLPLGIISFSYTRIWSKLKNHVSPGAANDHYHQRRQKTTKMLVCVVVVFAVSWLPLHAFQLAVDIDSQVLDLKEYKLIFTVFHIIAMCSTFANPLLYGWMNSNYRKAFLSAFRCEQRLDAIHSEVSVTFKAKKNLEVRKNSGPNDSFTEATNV
It counts as functional, cell-based.

The test system of experiment [7] is BJ. The experiment can be described thus: growth inhibition of engineered Ras-driven BJ cells – cell-based, alamar blue fluorescence, cherrypicked samples, dose response (AID 2631).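 Further: confirmatory dose-response assay in RAS-dependent BJ fibroblasts engineered with TERT, LT and ST, with cytotoxicity read by fluorescence.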 It is filed as functional. The note with it: Homo sapiens. (The colour change of resazurin is a common sign of viable cells or microbes.)
The test system of experiment [8] is BJ. The experiment can be described thus: BJ-TERT fibroblast viability loss – cell-based, RAS-independent, luminescence, dose response (AID 1933). It is filed as functional. The note with it: Homo sapiens.
Experiment [9] concerns BJ. The experiment can be described thus: cells. It is filed as functional, cell-based. The note with it: Homo sapiens.
Experiment [10] in a line: viability of PTEN-deleted HCT116 cells – cell-based, HCT116 PTEN knockout, dose response (AID 1047).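 Further: HCT116 colon tumor cells with PTEN knocked out; cells exposed to compound for 60 hours before readout; potency for loss of cell viability measured by luminescence.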 It counts as functional.
The nature of experiment [11]: viability of HCT116 lacking mutant beta-catenin – cell-based, human colon tumor, dose response (AID 1045).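 Further: HCT116 colon tumor cells with beta catenin knocked out; cells exposed to compound for 60 hours.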 It is filed as functional.
Experiment [12] in a line: DRD fibroblast viability loss – cell-based, non-viral oncogenic, luminescence, dose response (AID 1934). The following applies: Homo sapiens. It counts as functional.
Experiment [13] deals with BJ. The experiment can be described thus: BJ-TERT-LT-ST fibroblast viability loss – cell-based, RAS-independent, luminescence, dose response (AID 1935).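 Further: BJ fibroblasts immortalized with TERT plus LT and ST oncogenes.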 It is filed as functional. The following applies: Homo sapiens.
Experiment [14] concerns the target Heat shock cognate 71 kDa protein (Homo sapiens, UniProt P11142). The experiment can be described thus: In Vitro Hsc70 Dose Response Fluorescence Polarization Assay. [Related pubchem assays: 1072 ]. (Fluorescence polarisation rises when a labelled molecule tumbles more slowly, as on binding a larger partner.)
Experiment [15] concerns the target T3, Tyrosine-protein phosphatase non-receptor type 7 (Homo sapiens, UniProt P35236).
T3 sequence (P35236 whole entry): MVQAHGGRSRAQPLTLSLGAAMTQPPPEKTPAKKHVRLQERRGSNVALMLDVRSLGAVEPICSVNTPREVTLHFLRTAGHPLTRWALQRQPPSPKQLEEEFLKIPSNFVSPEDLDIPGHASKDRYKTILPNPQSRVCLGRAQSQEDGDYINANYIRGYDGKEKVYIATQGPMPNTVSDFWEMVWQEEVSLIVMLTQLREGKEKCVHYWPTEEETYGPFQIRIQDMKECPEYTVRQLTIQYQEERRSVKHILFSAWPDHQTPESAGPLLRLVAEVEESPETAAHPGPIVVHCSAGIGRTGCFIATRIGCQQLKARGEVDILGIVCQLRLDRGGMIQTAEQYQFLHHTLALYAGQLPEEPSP
It counts as functional.

For experiment [16], the target named is Heat shock 70 kDa protein 1A (Homo sapiens, UniProt P0DMV8). The experiment can be described thus: inhibition of Hsp70 binding activity – biochemical, fluorescence polarization, SAR follow-up (AID 1072).
Chain of Heat shock 70 kDa protein 1A (P0DMV8 whole entry): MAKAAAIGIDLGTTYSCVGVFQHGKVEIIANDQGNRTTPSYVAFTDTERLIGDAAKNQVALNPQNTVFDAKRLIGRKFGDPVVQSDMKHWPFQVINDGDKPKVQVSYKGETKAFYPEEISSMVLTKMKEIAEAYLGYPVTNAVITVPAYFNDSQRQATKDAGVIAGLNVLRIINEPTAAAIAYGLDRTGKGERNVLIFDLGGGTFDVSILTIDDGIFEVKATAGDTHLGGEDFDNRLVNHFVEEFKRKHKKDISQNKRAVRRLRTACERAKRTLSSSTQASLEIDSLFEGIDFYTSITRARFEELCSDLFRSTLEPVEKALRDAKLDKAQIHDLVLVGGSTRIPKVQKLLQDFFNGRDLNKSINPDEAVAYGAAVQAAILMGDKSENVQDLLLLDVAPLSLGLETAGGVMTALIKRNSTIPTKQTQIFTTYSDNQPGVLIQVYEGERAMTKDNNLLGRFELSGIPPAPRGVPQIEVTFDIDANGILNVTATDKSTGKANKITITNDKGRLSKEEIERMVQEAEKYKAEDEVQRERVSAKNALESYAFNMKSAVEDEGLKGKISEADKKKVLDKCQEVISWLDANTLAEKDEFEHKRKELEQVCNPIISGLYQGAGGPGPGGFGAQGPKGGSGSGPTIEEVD
For experiment [17], the target named is Glyceraldehyde-3-phosphate dehydrogenase (Homo sapiens, UniProt P04406).
Chain of Glyceraldehyde-3-phosphate dehydrogenase (P04406 whole entry): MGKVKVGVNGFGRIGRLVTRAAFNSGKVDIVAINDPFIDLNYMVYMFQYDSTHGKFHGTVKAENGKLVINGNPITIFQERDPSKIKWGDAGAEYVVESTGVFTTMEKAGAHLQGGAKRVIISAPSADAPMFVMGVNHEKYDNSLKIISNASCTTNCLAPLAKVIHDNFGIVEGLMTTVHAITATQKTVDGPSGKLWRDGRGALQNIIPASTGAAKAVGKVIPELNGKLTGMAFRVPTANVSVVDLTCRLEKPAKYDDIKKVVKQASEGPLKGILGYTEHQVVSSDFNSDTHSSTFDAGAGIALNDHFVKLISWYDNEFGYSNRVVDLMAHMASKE
In experiment [18] the target is T4, Dual specificity protein phosphatase 6 (Rattus norvegicus, UniProt Q64346).
T4 sequence (Q64346 whole entry): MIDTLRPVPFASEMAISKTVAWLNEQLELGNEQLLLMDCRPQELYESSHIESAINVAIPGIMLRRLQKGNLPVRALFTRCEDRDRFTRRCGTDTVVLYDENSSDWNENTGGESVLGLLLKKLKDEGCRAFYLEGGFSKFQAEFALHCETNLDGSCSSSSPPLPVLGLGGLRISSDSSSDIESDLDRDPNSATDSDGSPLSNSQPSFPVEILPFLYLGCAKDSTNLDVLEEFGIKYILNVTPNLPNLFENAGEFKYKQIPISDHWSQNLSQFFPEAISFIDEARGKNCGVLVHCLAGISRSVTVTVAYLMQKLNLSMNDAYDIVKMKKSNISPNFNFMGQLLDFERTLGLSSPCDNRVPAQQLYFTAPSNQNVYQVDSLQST
It counts as functional.

For experiment [19], the target named is T4, Dual specificity protein phosphatase 6.
The target of a further experiment is Paired box protein Pax-8 (Homo sapiens, UniProt Q06710). As to the kind of experiment: PAX8 transcriptional activity inhibition in RMG-I – RMG-I cells, luciferase, cherry-pick, dose response (AID 687027).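 Further: luciferase reporter driven by Pax8 target thyroperoxidase promoter measured by SteadyGlo luminescence.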 It is filed as functional, cell-based.
Chain of Paired box protein Pax-8 (Q06710 whole entry): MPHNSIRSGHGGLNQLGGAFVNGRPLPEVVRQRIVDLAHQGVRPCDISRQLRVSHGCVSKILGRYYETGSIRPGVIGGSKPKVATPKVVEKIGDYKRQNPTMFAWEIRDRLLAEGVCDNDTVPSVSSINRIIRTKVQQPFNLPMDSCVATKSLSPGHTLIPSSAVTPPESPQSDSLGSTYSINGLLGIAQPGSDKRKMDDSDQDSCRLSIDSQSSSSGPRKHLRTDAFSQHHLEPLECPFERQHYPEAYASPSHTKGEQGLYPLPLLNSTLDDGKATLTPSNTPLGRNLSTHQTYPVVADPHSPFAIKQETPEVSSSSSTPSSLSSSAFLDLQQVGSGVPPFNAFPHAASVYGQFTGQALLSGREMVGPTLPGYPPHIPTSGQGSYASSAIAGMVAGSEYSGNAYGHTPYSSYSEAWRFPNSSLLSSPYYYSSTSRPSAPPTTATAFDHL
Experiment [20] can be described thus: Shn3 3'UTR reporter signal decrease – cell-based, Clone20 osteoblasts, firefly luciferase, cherry-pick, set 2, Schnurri-3 inhibitor project, dose response (AID 720490).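 Further: actives lower the luminescence signal as inhibitors.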 It counts as functional.
Experiment [21] can be described thus: toxicity toward HepG2 liver cells – cell-based, plate reader, cherry-pick, antagonist series, cytotoxicity control, dose response (AID 743416). It counts as functional.
The nature of experiment [22]: Luminescence-based counterscreen assay for KLF5 inhibitors: dose response cell-based high throughput screening assay to identify cytotoxic compounds using the IEC-6 intestinal epithelial cell line. [Related pubchem assays: 1700 (Primary screen.), 1834 (Confirmation screen.), 1858 (Summary AID.), 1905 (Counterscreen.)]. It counts as functional.
Experiment [23] is described as follows: blockade of melanocortin 4 receptor signaling – cell-based, plate reader, cherry pick, counter-screen for LGR2 antagonist project, dose response (AID 743444).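 Further: transfected HEK 293 cells stimulated with alpha-MSH peptide; potency of inhibitors of the alpha-MSH evoked signal.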 It is filed as functional.
Experiment [24] can be described thus: HEK-293T viability loss after treatment – luminescence, T-cell screen hits, cytotoxicity control for TCR NF-kB inhibitor project, dose response (AID 489026).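 Further: cells exposed to compound about 14 hours before the viability readout.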 It is filed as functional, cell-based.
A short description of experiment [25]: reduction of Shn3 3'UTR-driven luciferase in osteoblasts – cell-based, Clone20 osteoblasts, firefly luciferase, cherry-picked, dose response (AID 624132).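 Further: firefly luciferase luminescence from reporter carrying the Shn3 3'UTR in osteoblasts.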 It is filed as functional.
In experiment [26] the target is T5, Heat shock factor protein 1 (Mus musculus, UniProt P38532).
T5 sequence (P38532 whole entry): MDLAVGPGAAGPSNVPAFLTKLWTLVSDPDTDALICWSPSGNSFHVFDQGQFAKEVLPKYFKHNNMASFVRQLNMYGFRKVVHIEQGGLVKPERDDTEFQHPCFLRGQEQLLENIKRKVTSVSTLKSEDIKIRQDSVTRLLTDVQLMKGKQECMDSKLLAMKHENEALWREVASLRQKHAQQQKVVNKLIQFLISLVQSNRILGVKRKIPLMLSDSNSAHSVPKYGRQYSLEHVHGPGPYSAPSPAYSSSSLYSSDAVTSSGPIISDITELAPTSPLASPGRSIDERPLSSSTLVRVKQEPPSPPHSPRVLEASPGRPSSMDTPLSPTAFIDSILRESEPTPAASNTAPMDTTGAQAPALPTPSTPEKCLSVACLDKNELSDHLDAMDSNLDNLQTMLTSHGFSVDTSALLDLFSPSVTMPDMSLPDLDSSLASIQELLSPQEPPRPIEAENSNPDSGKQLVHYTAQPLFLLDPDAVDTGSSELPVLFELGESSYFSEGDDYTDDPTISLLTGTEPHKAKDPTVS
The experiment can be described thus: decrease of HSF1-responsive luciferase luminescence – cell-based, NIH3T3, dose retest, confirmation (AID 2382).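 Further: NIH3T3 fibroblasts with HSF1-driven luciferase reporter stressed by proteasome inhibitor MG132; luminescence from HSF1-driven luciferase expression after 8 hours of MG132 stress.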 It is filed as functional.

The nature of experiment [27]: A549 cell cytotoxicity, dose response, cytotoxicity control, plate reader, cherry-pick, antagonist series (AID 743412). It counts as functional, cell-based.
Experiment [28] is described as follows: blockers of bursicon-stimulated LGR2 cAMP reporter – cell-based, HEK293, CRE-luciferase reporter, cherry pick, set 2, dose response (AID 743343).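 Further: transfected cells were stimulated with diluted bursicon conditioned medium after compound addition.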 It counts as functional.

Chain of Heat shock cognate 71 kDa protein (P11142 whole entry): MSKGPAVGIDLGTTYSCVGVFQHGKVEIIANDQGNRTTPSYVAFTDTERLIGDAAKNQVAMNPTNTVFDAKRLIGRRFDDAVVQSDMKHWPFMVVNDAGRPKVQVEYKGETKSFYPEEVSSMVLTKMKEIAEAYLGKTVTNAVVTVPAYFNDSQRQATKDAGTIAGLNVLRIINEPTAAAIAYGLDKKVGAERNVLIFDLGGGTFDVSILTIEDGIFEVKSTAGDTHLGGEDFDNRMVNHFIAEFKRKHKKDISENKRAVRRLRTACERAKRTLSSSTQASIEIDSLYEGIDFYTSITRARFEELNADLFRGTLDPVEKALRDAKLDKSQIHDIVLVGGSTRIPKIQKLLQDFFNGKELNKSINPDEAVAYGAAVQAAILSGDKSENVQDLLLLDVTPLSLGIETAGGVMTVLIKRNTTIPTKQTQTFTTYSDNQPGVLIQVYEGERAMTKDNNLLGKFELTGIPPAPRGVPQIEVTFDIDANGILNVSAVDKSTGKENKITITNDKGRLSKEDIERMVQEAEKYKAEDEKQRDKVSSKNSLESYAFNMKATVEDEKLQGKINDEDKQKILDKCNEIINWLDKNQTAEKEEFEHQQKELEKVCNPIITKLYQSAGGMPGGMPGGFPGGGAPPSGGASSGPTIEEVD

Take `CCN(c1ccccc1)S(=O)(=O)c1ccc(Cl)c(NC(=O)c2ccc(O)nn2)c1`: in the experiment “cells [1]”, the IC50 (in general, the point on the concentration scale where inhibition reaches its midpoint) is 32.8 µM (active).

On to `CC1=C2C(=O)C3C(CC=C4CC(O)CCC43C)C2CCC12OC1CC(C)CNC1C2C` (configuration not stated), for which the IC50 in the experiment “cells [1]” is 4.18 µM (active).

Take `CN(C)CCCSc1nc(-c2ccccc2)nc2c1CCC2`: the values for the EC50 (in the experiment “cells [2]”; in experiment [3]; in [4]) were 0.12 µM (active), < 0.1 µM (active) and > 60 µM (not active), respectively. Moreover, the results for the IC50 in experiment [5] and in experiment [6] were 7.33 µM (active) and 18.2 µM (not active), respectively.

Regarding `O=C(/C=C/c1cccc2ccccc12)c1ccncc1`, the EC50 (as a rule, the concentration needed to bring the measured effect to its halfway point) is > 133 µM (inactive) in the experiment with BJ [7]; 10.2 µM (inconclusive) in the experiment with BJ [8]; > 150 µM (inconclusive) in the experiment on BJ [9]; 8.54 µM (active) in [10]; 5.26 µM (active) in [11]; 16.5 µM (active) in [12]. In addition, the EC50 in the experiment on BJ [13] was > 75 µM (inconclusive). The IC50 in experiment [5] was 5.47 µM (active); in [6], 4.95 µM (active).

In the case of `O=C(Oc1ccc2c(c1)C1C=CCC1C(C(=O)O)N2)c1ccc(Cl)cc1Cl` (configuration not stated), the IC50 in experiment [14] was > 100 µM (not active); in experiment [15], 2.38 µM (active); in experiment [16], > 100 µM (not active); in experiment [17] it was > 100 µM (not active); in experiment [18], 15.6 µM (active); in experiment [19] it was 17 µM (active).

Take `CC(C)(C)C(=O)Nc1ccc(NC(=O)c2ccco2)nc1`: the AC50 (as a rule, the midpoint of the concentration-response curve, whichever way the signal moves) is 1.26 µM (active) at Paired box protein Pax-8; 2.64 µM (active) in experiment [20]; > 52 µM (inactive) in [21]; 0.245 µM (active) in experiment [23]; 1.17 µM (active) in experiment [25]; > 52 µM (inactive) in experiment [27]. Also, in experiment [28], the AC50 was 0.243 µM (active). In addition, the IC50 is > 39.8 µM (not active) in experiment [22] and > 80 µM (inactive) in experiment [24]. In experiment [26], the EC50 was < 0.16 µM (active).
